Several values for one entry are separate records, joined by “and”; a condition that tells them apart may be missing. Equal values may be shown once.
Experiments:
[1] = target: T1, TrkA and p75^NTR (PC12 cells) (Mus musculus, UniProt P01139); assay: 125I-NGF receptor binding to PC12 cells in the presence of competitor; design: species or system rat; conditions: compound 50 μM; 125I-NGF 1 nM; 2 h at 4° C.; average of three values
T1 construct: PC12 cells (rat pheochromocytoma cells expressing TrkA and p75^NTR; obtained from ATCC); host or cells: PC12 rat pheochromocytoma cells (intact, in suspension)
Experimental: (§1) The radio-iodination and receptor binding of NGF (Sutter et al., 1979) was performed with modifications (Ross et al., 1997) as follows: Evaluation of the ability of NCP compounds to inhibit TrkA and p75^NTR binding was determined by the binding of ^125I-NGF to PC12 cells (rat pheochromocytoma cells expressing TrkA and p75^NTR; obtained from ATCC) and PC12^nnr5 (rat pheochromocytoma cells expressing p75^NTR only; obtained from Dr. L. Greene, Columbia University, NY). The p75^NTR is in a low affinity state and a high affinity state, respectively, in these cell types (Ross et al., 1998). PC12 and PC12^nnr5 cells were grown in RPMI (Sigma) with 10% heat inactivated donor horse serum and 5% fetal calf serum. Cells were harvested by replacing the medium with calcium, magnesium-free balanced salt solution (Gey's solution) and incubating at 37° C. for 15 minutes. Cells were pelleted by centrifugation and suspended in HKR buffer (10 mM Hepes [pH 7.35] containing 125 mM NaCl, 4.8 mM KCl, 1.3 mM CaCl2, 1.2 mM MgSO4, 1.2 mM KH2PO4, 1 g/L glucose and 1 g/L BSA) at a cell concentration of 2×10^6/mL and kept at 4° C. Triplicate tubes were set up for total binding, non-specific binding and binding in the presence of candidate competitor molecule (i.e., a tube for each data point). Each tube contained ^125I-NGF (at 1 nM), 400,000 cells (for a final cell concentration of 10^6/mL) and NGF (50 nM, to define non-specific binding), as required. The tubes were incubated for 2 h at 4° C. and specific binding evaluated by measuring specifically bound DPM (Ross et al., 1997). Data were analysed and the results expressed as receptor binding observed in the presence of competitor (e.g. NCP compounds) as a percentage of receptor binding in the absence of a competitor.

[2] = test system: T2, TrkA and p75^NTR (PC12 cells); assay: as above; design: species or system rat; conditions: compound 50 μM; 125I-NGF 1 nM; 2 h at 4° C.; receptor binding as percentage of binding in absence of competitor
T2 construct: PC12 cells (rat pheochromocytoma cells expressing TrkA and p75^NTR; obtained from ATCC); host or cells: PC12 rat pheochromocytoma cells (intact, in suspension)
Experimental: as §1

[3] = test system: p75^NTR (PC12^nnr5 cells, expressing p75^NTR only); assay: 125I-NGF receptor binding to PC12^nnr5 cells in the presence of competitor; design: species or system rat; conditions: compound 50 μM, 125I-NGF 1 nM, 2 h at 4° C.; for nnr5 % of Max, Avg: average of three values; for nnr5 % of Max (individual determinations): receptor binding as percentage of binding in absence of competitor
Experimental: as §1

T2 sequence (P01139 122-241): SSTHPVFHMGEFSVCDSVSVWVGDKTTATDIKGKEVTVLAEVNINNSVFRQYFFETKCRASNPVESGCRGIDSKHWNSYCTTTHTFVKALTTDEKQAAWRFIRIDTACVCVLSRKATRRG
T1 sequence (P01139 122-241): as above

Compound	PC12 % of Max, Avg [1]	PC12 % of Max (individual determinations) [2]	melting point	nnr5 % of Max, Avg [3]	nnr5 % of Max (individual determinations) [3]
O=C(O)c1cccc(N2C(=O)c3ccc([N+](=O)[O-])cc3C2=O)c1 [Compound 146, 4-nitro-N-(m-carboxyphenyl)phthalimide]	= 58 % of Max	52 % of Max (2×) and 71 % of Max	306 to 308 °C	= 44 % of Max	48 % of Max and 43 % of Max and 42 % of Max
O=C(O)c1ccccc1N1C(=O)c2cccc3cc([N+](=O)[O-])cc(c23)C1=O [Compound 207, 3-nitro-N-(o-carboxyphenyl)-1,8-naphthalimide]	= 54 % of Max	60 % of Max and 34 % of Max and 69 % of Max		= 58 % of Max	64 % of Max and 52 % of Max and 59 % of Max
O=C(O)c1ccc(CN2C(=O)c3cccc4cc([N+](=O)[O-])cc(c34)C2=O)cc1 [Compound 208, 3-nitro-N-(p-carboxyphenylmethyl)-1,8-naphthalimide]	= 49 % of Max	56 % of Max and 45 % of Max and 47 % of Max		= 83 % of Max	103 % of Max and 87 % of Max and 58 % of Max
O=C(O)c1ccc(N2C(=O)c3cccc4c([N+](=O)[O-])ccc(c34)C2=O)cc1 [Compound 225, 4-nitro-N-(p-carboxyphenyl)-1,8-naphthalimide]	= 66 % of Max	69 % of Max and 60 % of Max and 68 % of Max		= 56 % of Max	49 % of Max and 50 % of Max and 68 % of Max
O=C(O)c1cccc(N2C(=O)c3cccc4c([N+](=O)[O-])ccc(c34)C2=O)c1 [Compound 226, 4-nitro-N-(m-carboxyphenyl)-1,8-naphthalimide]	= 30 % of Max	27 % of Max and 29 % of Max and 35 % of Max		= 12 % of Max	13 % of Max (2×) and 10 % of Max
